Values after ≈ are worked out from the molar mass of the structure shown.
Key:
[1] = Dissociation constant, pKa of the compound; format: physicochemical
[2] = target: T1, Prostaglandin D2 receptor 2 (Homo sapiens, UniProt Q9Y5Y4); assay: biochemical
T1 sequence (Q9Y5Y4 whole entry): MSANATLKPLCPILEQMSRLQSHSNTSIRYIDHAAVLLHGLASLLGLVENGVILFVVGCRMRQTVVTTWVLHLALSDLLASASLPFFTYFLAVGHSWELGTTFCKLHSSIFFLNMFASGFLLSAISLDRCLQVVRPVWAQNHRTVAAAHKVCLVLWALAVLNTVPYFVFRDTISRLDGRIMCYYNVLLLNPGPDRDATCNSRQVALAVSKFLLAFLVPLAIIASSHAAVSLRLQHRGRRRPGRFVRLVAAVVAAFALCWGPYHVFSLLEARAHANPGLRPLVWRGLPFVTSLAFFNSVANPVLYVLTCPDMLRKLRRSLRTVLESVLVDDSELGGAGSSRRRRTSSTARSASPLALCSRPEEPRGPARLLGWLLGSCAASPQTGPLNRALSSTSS
Description: (§1) Displacement of [3H]PGD2 from recombinant human CRTH2 receptor expressed in CHO-K1 cells after 30 min by FRET method

[3] = Half life in mouse at 2 mg/kg, iv; format: ADME, organism-based; set-up: dose 2 mg/kg, route intravenous; conditions: in vivo
[4] = Oral bioavailability in mouse at 10 mg/kg; format: ADME, organism-based; conditions: in vivo
in vitro [5] = conditions: human, plasma
Description: Plasma protein binding in human

Eosinophil = assay: cells; conditions: Homo sapiens, Blood, 10 min
Description: Inhibition of eosinophil shape change in human whole blood after 10 mins by flow cytometric assay

physchem = conditions: buffer, pH 6.6
Description: Aqueous solubility of the compound at pH 6.6

[6] = Clearance in mouse plasma at 2 mg/kg, iv; format: ADME, organism-based; set-up: dose 2 mg/kg, route intravenous
[7] = Cmax in mouse at 10 mg/kg, po; format: ADME, organism-based; set-up: dose 10 mg/kg, route oral; conditions: in vivo
[8] = Volume of distribution at steady state in mouse at 2 mg/kg, iv; format: ADME, organism-based; set-up: dose 2 mg/kg, route intravenous; conditions: in vivo, read-out: Vdss
in vitro [9] = conditions: human, Caco-2, pH 6.2
Description: Apparent permeability in human Caco2 cells at pH 6.2/7.4

in vivo [10] = conditions: rat, plasma, iv, 2 mg/kg
Description: Clearance in rat plasma at 2 mg/kg, iv

in vivo [11] = conditions: rat, po, 10 mg/kg
in vivo [12] = conditions: rat, iv, 2 mg/kg
Description: Half life in rat at 2 mg/kg, iv

in vivo [13] = conditions: rat, po, 10 mg/kg; remark: listed apart in the source
in vivo [14] = conditions: rat, iv, 2 mg/kg; remark: listed apart in the source
Description: Volume of distribution at steady state in rat at 2 mg/kg, iv

Mus musculus = organism: Mus musculus; assay: animal or person; conditions: Ear, po, read-out: INH
[15] = Effective permeability across human Caco2 cells; format: ADME, cell-based; conditions: Caco-2, read-out: Peff
[16] = Oral bioavailability in mouse; format: ADME, organism-based; conditions: in vivo
[17] = Half life in mouse liver microsomes; format: ADME, Microsome
[18] = Clearance in mouse; format: ADME, organism-based; conditions: in vivo
[19] = target: T1, Prostaglandin D2 receptor 2; conditions: cho-k1
Description: as §1

Liver microsomes = assay: Metabolic stability in human liver microsomes; format: ADME, Microsome

| pKa [1] | IC50 [2] [µM] | SMILES | further results |
| --- | --- | --- | --- |
| 4.07 | 0.104 | COc1ccc2c(c1)c(-c1ccc(=O)n(Cc3ccccc3)n1)c(C)n2CC(=O)O | – |
| – | 0.004 | Cc1c(CC2=NN(Cc3ccc(F)cc3F)C(=O)CC2)c2cc(F)ccc2n1CC(=O)O | half-life [3]: 4 h; bioavailability [4]: 41%; fraction unbound (in vitro [5]): < 0.02; IC50 (Eosinophil): 0.008 µM; solubility (physchem): 0.954 mg/mL (≈ 2150 µM); clearance [6]: 0.54 L/h/kg; Cmax [7]: 1.89 µg/mL; Vd [8]: 1.12 L/kg |
| – | 0.0008 | Cc1c(Cc2ccc(=O)n(Cc3cc(F)c(F)cc3F)n2)c2cc(F)ccc2n1CC(=O)O | fraction unbound (in vitro [5]): < 0.02; IC50 (Eosinophil): 0.01 µM |
| – | 0.012 | Cc1c(Cc2ccc(=O)n(Cc3ccncc3)n2)c2cc(F)ccc2n1CC(=O)O | fraction unbound (in vitro [5]): < 0.02; IC50 (Eosinophil): 0.022 µM |
| 4.02 | 0.023 | Cc1c(-c2ccc(=O)n(Cc3ccccc3)n2)c2cc(F)ccc2n1CC(=O)O | Papp (in vitro [9]): 5 nm/s |
| 4.16 | 0.034 | Cc1ccc2c(c1)c(-c1ccc(=O)n(Cc3ccccc3)n1)c(C)n2CC(=O)O | – |
| 3.86 | 0.09 | Cc1c(-c2ccc(=O)n(Cc3ccccc3)n2)c2cc(Cl)cc(F)c2n1CC(=O)O | – |
| 3.85 | 0.076 | Cc1c(-c2ccc(=O)n(Cc3ccccc3)n2)c2cc(F)cc(F)c2n1CC(=O)O | – |
| 3.83 | 0.934 | Cc1c(-c2ccc(=O)n(Cc3ccccc3)n2)c2cc(S(C)(=O)=O)cc(F)c2n1CC(=O)O | – |
| – | 0.011 | Cc1c(-c2nn(Cc3ccccc3)c(=O)c3ccccc23)c2cc(F)ccc2n1CC(=O)O | – |
| – | 0.016 | Cc1c(-c2nn(Cc3ccccc3)c(=O)c3ccccc23)c2ccccc2n1CC(=O)O | – |
| – | > 1 | Cc1c(-c2nn(Cc3ccccc3)c(=O)c3ccccc23)c2ccccc2n1CC(N)=O | – |
| 4.03 | 0.016 | Cc1c(-c2ccc(=O)n(Cc3ccccc3)n2)c2cc(Br)ccc2n1CC(=O)O | – |

Continued, molecule first:

| SMILES | pKa [1] | IC50 [2] [µM] | further results |
| --- | --- | --- | --- |
| Cc1c(-c2ccc(=O)n(Cc3ccc(F)cc3F)n2)c2cc(F)ccc2n1CC(=O)O | – | 0.01 | Papp (in vitro [9]): 21 nm/s |
| Cc1c(Cc2ccc(=O)n(Cc3ccc(C(C)(C)O)cc3)n2)c2cc(F)ccc2n1CC(=O)O | – | 0.005 | fraction unbound (in vitro [5]): < 0.02; IC50 (Eosinophil): 0.013 µM |
| Cc1c(Cc2ccc(=O)n(Cc3ccncc3F)n2)c2cc(F)ccc2n1CC(=O)O | – | – | fraction unbound (in vitro [5]): < 0.02 |
| Cc1c(Cc2ccc(=O)n(Cc3ccccc3)n2)c2cc(Cl)ccc2n1CC(=O)O | – | 0.015 | fraction unbound (in vitro [5]): < 0.02; IC50 (Eosinophil): 0.015 µM |
| Cc1c(Cc2ccc(=O)n(Cc3ccc(F)cc3F)n2)c2ccccc2n1CC(=O)O | – | – | fraction unbound (in vitro [5]): < 0.02 |
| Cc1c(Cc2ccc(=O)n(Cc3ccc(C(F)(F)F)cc3)n2)c2cc(F)ccc2n1CC(=O)O | – | – | fraction unbound (in vitro [5]): < 0.02; IC50 (Eosinophil): 0.055 µM |
| Cc1c(Cc2ccc(=O)n(Cc3ccc(C(O)(C(F)(F)F)C(F)(F)F)cc3)n2)c2cc(F)ccc2n1CC(=O)O | – | – | fraction unbound (in vitro [5]): < 0.02; IC50 (Eosinophil): 0.057 µM |
| Cc1c(Cc2ccc(=O)n(Cc3ccccc3)n2)c2ccccc2n1CC(=O)O | – | – | fraction unbound (in vitro [5]): < 0.02; IC50 (Eosinophil): 0.155 µM |
| Cc1c(Cc2ccc(=O)n(Cc3ccc(F)cc3F)n2)c2cc(F)cc(F)c2n1CC(=O)O | – | – | fraction unbound (in vitro [5]): < 0.02; IC50 (Eosinophil): 0.18 µM |
| Cc1c(-c2ccc(=O)n(Cc3ccccc3)n2)c2cc(Cl)ccc2n1CC(=O)O | 4.03 | 0.028 | – |
| Cc1c(-c2ccc(=O)n(Cc3ccccc3)n2)c2cc(S(C)(=O)=O)ccc2n1CC(=O)O | 4 | 0.135 | – |
| Cc1c(-c2ccc(=O)n(Cc3ccccc3)n2)c2cccc(Br)c2n1CC(=O)O | 3.98 | – | – |
| Cc1c(-c2ccc(=O)n(Cc3ccccc3)n2)c2cc(Cl)cc(Cl)c2n1CC(=O)O | 3.88 | 1.69 | – |
| Cc1c(-c2ccc(=O)n(Cc3ccccc3)n2)c2cc(F)cc(Cl)c2n1CC(=O)O | 3.86 | 0.245 | – |
| Cc1c(-c2ccc(=O)n(Cc3ccccc3)n2)c2cc(F)cc(S(C)(=O)=O)c2n1CC(=O)O | 3.83 | – | – |
| Cc1c(-c2nn(Cc3ccccc3)c(=O)c3ccccc23)c2cc(Cl)ccc2n1CC(=O)O | – | 0.011 | – |
| Cc1c(Cc2nn(Cc3ccccc3)c(=O)c3ccccc23)c2cc(Cl)ccc2n1CC(=O)O | – | 0.029 | – |
| Cc1c(C2=NN(Cc3ccccc3)C(=O)C3CCCCC23)c2cc(F)ccc2n1CC(=O)O (centres undefined) | – | 0.109 | – |
| Cc1c(Cc2ccc(=O)n(Cc3ccccc3)n2)c2cc(F)ccc2n1CC(=O)O | – | 0.009 | Papp (in vitro [9]): 43 nm/s |
| Cc1c(CC2=NN(Cc3ccccc3)C(=O)CC2)c2cc(F)ccc2n1CC(=O)O | – | 0.016 | clearance (in vivo [10]): 0.78 L/h/kg; fraction unbound (in vitro [5]): < 0.02; bioavailability (in vivo [11]): 28%; IC50 (Eosinophil): 0.004 µM; half-life (in vivo [12]): 4.3 h; Cmax (in vivo [13]): 0.484 µg/mL; Vd (in vivo [14]): 1.7 L/kg; inhibition in vivo at 3 mg/kg (Mus musculus): 34% |
| Cc1c(-c2nn(CCOc3ccc(Cl)cc3)c(=O)c3ccccc23)c2cc(Cl)ccc2n1CC(=O)O | – | 0.002 | Papp [15]: 2 nm/s; bioavailability [16]: < 1%; half-life [17]: 0.183 h; clearance [18]: > 5.4 L/h/kg |
| Cc1c(-c2ccc(=O)n(Cc3ccc(F)cc3)n2)c2cc(F)ccc2n1CC(=O)O | – | – | Papp [15]: 3 nm/s; IC50 [19]: 0.02 µM; Stability (Liver microsomes): Stable; bioavailability [16]: 11%; half-life [17]: > 0.5 h; clearance [18]: 0.414 L/h/kg |
| Cc1c(-c2nn(Cc3ccccc3)c(=O)c3ccccc23)c2ccccc2n1CC(=O)N(C)C | – | > 1 | – |
| Cc1c(-c2nn(Cc3ccccc3)c(=O)c3ccccc23)c2ccccc2n1CC(=O)N1CCCC1 | – | > 1 | – |
| Cc1c(-c2nn(Cc3ccccc3)c(=O)c3ccccc23)c2ccccc2n1CC(=O)NS(C)(=O)=O | – | > 1 | – |
| Cc1c(-c2nn(Cc3ccccc3)c(=O)c3ccccc23)c2ccccc2n1CCO | – | > 1 | – |
| Cc1c(-c2nn(Cc3ccccc3)c(=O)c3ccccc23)c2ccccc2n1C(C)C(=O)O (centres undefined) | – | > 1 | – |
| Cc1c(-c2nn(Cc3ccccc3)c(=O)c3ccccc23)c2ccccc2n1CCC(=O)O | – | > 1 | – |
| Cc1c(-c2ccc(=O)n(Cc3ccccc3)n2)c2ccccc2n1CC(=O)O | 4.15 | 0.134 | – |
